Experimental data from ChEMBL document CHEMBL1201862, “PubChem BioAssay data set” (2004).
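Briefly, cells in 96-well plates were exposed to five compound concentrations for 48 h, and endpoints were estimated by linear interpolation. GI50 = concentration required for 50% inhibition of growth.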 Activity calls are given as the source filed them. No stated cut-off is given here; in the data, active = GI50 up to about 1.1 µM and inactive = higher.

Assays:
Test in all cases: inhibition of tumour cell growth, NCI panel, 48 h
HCT-15 = test system: HCT-15
T47D = test system: T47D
TK-10 = test system: TK-10
HCC 2998 = test system: HCC 2998
MDA-MB-435 = test system: MDA-MB-435
KM12 = test system: KM12
HL-60 = test system: HL-60
HOP-92 = test system: HOP-92
UACC-257 = test system: UACC-257
K562 = test system: K562
CAKI-1 = test system: CAKI-1
NCI-H522 = test system: NCI-H522
NCI-H226 = test system: NCI-H226
EKVX = test system: EKVX
RPMI-8226 = test system: RPMI-8226
COLO 205 = test system: COLO 205
MOLT-4 = test system: MOLT-4
DU-145 = test system: DU-145
SK-OV-3 = test system: SK-OV-3
SK-MEL-5 = test system: SK-MEL-5

Row | SMILES | GI50 (HCT-15) [µM] | GI50 (T47D) | GI50 (TK-10) | GI50 (HCC 2998) | GI50 (MDA-MB-435) | GI50 (KM12) | GI50 (HL-60) | GI50 (HOP-92) | GI50 (UACC-257) | GI50 (K562) | GI50 (CAKI-1) | GI50 (NCI-H522) | GI50 (NCI-H226) | GI50 (EKVX) | GI50 (RPMI-8226) | GI50 (COLO 205) | GI50 (MOLT-4) | GI50 (DU-145) | GI50 (SK-OV-3) | GI50 (SK-MEL-5)
1 | O=C1CC(Cl)c2c1csc2Br (stereo not given) | 12.9 | 23.1 µM (inactive) | 16 µM (inactive) | 17.4 µM (inactive) | 15.1 µM (inactive) | 13.2 µM (inactive) | 21.4 µM (inactive) | 21.5 µM (inactive) | 16.3 µM (inactive) | 17.6 µM (inactive) | 5.61 µM (inactive) | 3.26 µM (inactive) | 29.9 µM (inactive) | 20.3 µM (inactive) | 1.03 µM (active) | 15.2 µM (inactive) | 3.66 µM (inactive) | 29.4 µM (inactive) | 18.6 µM (inactive) | 16.9 µM (inactive)
2 | O=c1n(-c2ccc(Cl)c(Cl)c2)c(=O)n(-c2ccc(Cl)c(Cl)c2)c(=O)n1-c1ccc(Cl)c(Cl)c1 | 1.58 | 1.57 µM (inactive) | 5.53 µM (inactive) | 2.2 µM (inactive) | 3.93 µM (inactive) | 2.91 µM (inactive) | 2.89 µM (inactive) | 0.0144 µM (active) | 0.736 µM (active) | 2.06 µM (inactive) | 3.49 µM (inactive) | 3.52 µM (inactive) | 2.82 µM (inactive) | 3.5 µM (inactive) | 0.558 µM (active) | 0.719 µM (active) | 1.87 µM (inactive) | 4.01 µM (inactive) | 2.11 µM (inactive) | 1.9 µM (inactive)
3 | Cc1ccc(/N=C2/SC(c3ccc(C)cc3)(c3ccc(C)cc3)c3ccccc32)cc1 | > 100 | > 100 µM (inactive) | > 100 µM (inactive) | > 100 µM (inactive) | > 100 µM (inactive) | > 100 µM (inactive) | > 100 µM (inactive) | > 100 µM (inactive) | > 100 µM (inactive) | > 100 µM (inactive) | > 100 µM (inactive) | > 100 µM (inactive) | > 100 µM (inactive) | > 100 µM (inactive) | > 100 µM (inactive) | > 100 µM (inactive) | > 100 µM (inactive) | > 100 µM (inactive) | > 100 µM (inactive) | > 100 µM (inactive)
4 | C=C1C(=O)O[C@@H]2C[C@]3(C)CC[C@]4(C)[C@H](CC[C@@H]5[C@@]6(C)CCC(=O)C(C)(C)[C@@H]6CC[C@]54C)[C@H]3[C@H]12 [OCHRACEOLIDE A] | 12.5 | 10.6 µM (inactive) | 16 µM (inactive) | 19.2 µM (inactive) | 11.2 µM (inactive) | 19.2 µM (inactive) | 1.63 µM (inactive) | 9.31 µM (inactive) | 14.6 µM (inactive) | 4.45 µM (inactive) | 13.1 µM (inactive) | 7.33 µM (inactive) | 20 µM (inactive) | 19 µM (inactive) | 2.1 µM (inactive) | 7.19 µM (inactive) | 2.31 µM (inactive) | 17.9 µM (inactive) | 24 µM (inactive) | 12.5 µM (inactive)
